Measured values as given in ChEMBL document CHEMBL1926646 (Bioorg Med Chem, 2011).
Active and inactive are the calls of the source. The rule behind the calls is not given here.

Legend:
[1] = Plasma protein binding in rat at 2000 ng/ml after 0.5 hrs by LC-MS/MS analysis; format: ADME, cell-free; settings: read-out: PPB (converted)
[2] = Tmax in Sprague-Dawley rat at 10 mg/kg, po; format: ADME, organism-based; design: dose 10 mg/kg, route oral; settings: in vivo
Canis familiaris [3] = test: AUC in Beagle dog at 0.5 mg/kg, po; format: ADME, organism-based, Canis lupus familiaris, Plasma; design: dose 0.5 mg/kg, route oral; settings: in vivo
[4] = Plasma protein binding in dog at 2000 ng/ml after 0.5 hrs by LC-MS/MS analysis; format: ADME, cell-free, Canis lupus familiaris; settings: read-out: PPB (converted)
[5] = Oral bioavailability in Sprague-Dawley rat at 10 mg/kg; format: ADME, organism-based; settings: in vivo
[6] = Plasma protein binding in dog at 20 ng/ml after 0.5 hrs by LC-MS/MS analysis; format: ADME, cell-free, Canis lupus familiaris; settings: read-out: PPB (converted)
[7] = Oral bioavailability in Beagle dog at 0.5 mg/kg; format: ADME, organism-based, Canis lupus familiaris; settings: in vivo
[8] = Plasma protein binding in human at 2000 ng/ml after 0.5 hrs by LC-MS/MS analysis; format: ADME, cell-free; settings: read-out: PPB (converted)
Rattus norvegicus [9] = test: Volume of distribution at steady state in Sprague-Dawley rat at 3 mg/kg, iv; format: ADME, organism-based; design: dose 3 mg/kg, route intravenous; settings: in vivo
[10] = Total clearance in Beagle dog at 0.2 mg/kg, iv; format: ADME, organism-based, Canis lupus familiaris; design: dose 0.2 mg/kg, route intravenous; settings: in vivo
[11] = Drug level in Sprague-Dawley rat plasma at 3 mg/kg at Tmax; format: ADME, organism-based; design: dose 3 mg/kg; settings: read-out: Drug uptake
[12] = Terminal half life in Beagle dog at 0.5 mg/kg, po; format: ADME, organism-based, Canis lupus familiaris; design: dose 0.5 mg/kg, route oral; settings: in vivo, read-out: beta t1/2 (converted)
[13] = Cmax in Beagle dog at 0.5 mg/kg, po; format: ADME, organism-based, Canis lupus familiaris; design: dose 0.5 mg/kg, route oral; settings: in vivo
Rattus norvegicus [14] = test: Inhibition of plasma DPP-4 activity in Wistar/ST rat at 10 mg/kg, po pretreated 30 mins before glucose challenge measured within 30 mins; format: functional
Rattus norvegicus [15] = test: Antidiabetic activity in Wistar/ST rat plasma assessed as reduction in glucose AUC (0 to 60 mins) at 10 mg/kg, po pretreated 30 mins before glucose challenge measured for 2 hrs by oral glucose tolerance test; format: functional, organism-based; design: dose 10 mg/kg
Rattus norvegicus [16] = test: AUC in Sprague-Dawley rat at 10 mg/kg, po; format: ADME, organism-based, Plasma; design: dose 10 mg/kg, route oral; settings: in vivo
[17] = Terminal half life in Sprague-Dawley rat at 10 mg/kg, po; format: ADME, organism-based; design: dose 10 mg/kg, route oral; settings: in vivo, read-out: beta t1/2 (converted)
[18] = Plasma protein binding in rat at 20 ng/ml after 0.5 hrs by LC-MS/MS analysis; format: ADME, cell-free; settings: read-out: PPB (converted)
Canis familiaris [19] = test: Volume of distribution at steady state in Beagle dog at 0.2 mg/kg, iv; format: ADME, organism-based, Canis lupus familiaris; design: dose 0.2 mg/kg, route intravenous; settings: in vivo
Rattus norvegicus [20] = test: Inhibition of plasma DPP-4 activity in orally dosed Wistar/ST rat pretreated 30 mins before glucose challenge measured for 2 hrs during oral glucose tolerance test; format: functional, organism-based
[21] = Tmax in Sprague-Dawley rat at 3 mg/kg, po; format: ADME, organism-based; design: dose 3 mg/kg, route oral; settings: in vivo
[22] = Plasma protein binding in human at 20 ng/ml after 0.5 hrs by LC-MS/MS analysis; format: ADME, cell-free; settings: read-out: PPB (converted)
[23] = Tmax in Beagle dog at 0.5 mg/kg, po; format: ADME, organism-based, Canis lupus familiaris; design: dose 0.5 mg/kg, route oral; settings: in vivo
[24] = Total clearance in Sprague-Dawley rat at 3 mg/kg, iv; format: ADME, organism-based; design: dose 3 mg/kg, route intravenous; settings: in vivo
[25] = Cmax in Sprague-Dawley rat at 10 mg/kg, po; format: ADME, organism-based; design: dose 10 mg/kg, route oral; settings: in vivo
[26] = Cmax in Sprague-Dawley rat at 3 mg/kg, po; format: ADME, organism-based; design: dose 3 mg/kg, route oral; settings: in vivo
Rattus norvegicus [27] = test: Inhibition of plasma DPP-4 activity in Wistar/ST rat at 3 mg/kg, po pretreated 30 mins before glucose challenge measured for 2 hrs during oral glucose tolerance test; format: functional
Dipeptidyl peptidase 8 = Dipeptidyl peptidase 8 (Homo sapiens, UniProt Q6V1X1); test: Inhibition of human recombinant DPP-8 expressed in Sf9 cells using H-Gly-Pro-AMC as substrate preincubated for 30 mins before substrate addition measured after 20 mins by fluorescence assay
Dipeptidyl peptidase 2 = Dipeptidyl peptidase 2 (Homo sapiens, UniProt Q9UHL4); test: Inhibition of DPP-2 expressed in human Caco-2 cells using H-Lys-Ala-AMC as substrate preincubated for 30 mins before substrate addition measured after 20 mins by fluorescence assay; format: cell-based

Chain of Dipeptidyl peptidase 8 (Q6V1X1 whole entry): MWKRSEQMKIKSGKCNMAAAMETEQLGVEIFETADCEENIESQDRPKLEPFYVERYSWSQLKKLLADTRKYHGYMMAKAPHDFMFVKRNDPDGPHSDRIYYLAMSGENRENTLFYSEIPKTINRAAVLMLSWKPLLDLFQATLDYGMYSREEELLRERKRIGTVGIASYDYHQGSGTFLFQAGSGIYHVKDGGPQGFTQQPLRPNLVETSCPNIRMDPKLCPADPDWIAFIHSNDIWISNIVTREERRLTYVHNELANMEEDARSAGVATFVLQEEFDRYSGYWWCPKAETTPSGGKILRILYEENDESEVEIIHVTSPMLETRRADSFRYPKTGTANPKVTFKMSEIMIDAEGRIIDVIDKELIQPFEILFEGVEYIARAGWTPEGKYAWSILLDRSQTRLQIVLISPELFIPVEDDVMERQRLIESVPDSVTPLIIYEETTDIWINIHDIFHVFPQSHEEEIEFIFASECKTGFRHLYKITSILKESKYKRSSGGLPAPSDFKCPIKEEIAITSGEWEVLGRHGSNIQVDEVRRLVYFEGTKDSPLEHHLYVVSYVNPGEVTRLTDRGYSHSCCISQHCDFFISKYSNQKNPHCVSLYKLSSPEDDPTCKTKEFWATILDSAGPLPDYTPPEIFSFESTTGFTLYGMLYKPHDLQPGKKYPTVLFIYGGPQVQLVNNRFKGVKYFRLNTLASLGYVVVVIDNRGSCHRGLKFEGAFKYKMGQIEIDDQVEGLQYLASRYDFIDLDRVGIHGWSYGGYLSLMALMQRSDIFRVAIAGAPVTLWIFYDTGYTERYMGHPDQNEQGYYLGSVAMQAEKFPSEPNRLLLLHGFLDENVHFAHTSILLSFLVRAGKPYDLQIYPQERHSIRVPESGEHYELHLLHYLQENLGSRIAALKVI

## Cc1cc2ncc(C(=O)NCC(C)(C)NCC(=O)N3CCC[C@H]3C#N)c(C)n2n1.Cl
[1]
  fraction unbound at 0.5 h, 2000 ng/ml: 0.821
[2]
  Tmax: 0.25 h
Canis familiaris [3]
  AUC: 6390 ng·h/mL
[4]
  fraction unbound at 0.5 h, 2000 ng/ml: 0.801
[5]
  bioavailability: 27%
[6]
  fraction unbound at 0.5 h, 20 ng/ml: 0.775
[7]
  bioavailability: 98%
[8]
  fraction unbound at 0.5 h, 2000 ng/ml: 0.784
Rattus norvegicus [9]
  Vdss: 1.61 L/kg
[10]
  clearance: 10.3 mL/min/kg
[11]
  Cmax: 54 nM
[12]
  half-life: 1.3 h
[13]
  Cmax: 282 ng/mL
Rattus norvegicus [14]
  inhibition in vivo at 10 mg/kg: 90%
Rattus norvegicus [15]
  Activity: Active
Rattus norvegicus [16]
  AUC: 1110 ng·h/mL
[17]
  half-life: 1.9 h
[18]
  fraction unbound at 0.5 h, 20 ng/ml: 0.779
Canis familiaris [19]
  Vdss: 0.75 L/kg
Rattus norvegicus [20]
  inhibition: Dose-dependent effect
[21]
  Tmax: 0.25 h
[22]
  fraction unbound at 0.5 h, 20 ng/ml: 0.811
[23]
  Tmax: 1 h
[24]
  clearance: 37.2 mL/min/kg
[25]
  Cmax: 747 ng/mL
[26]
  Cmax: 68 ng/mL
Rattus norvegicus [27]
  inhibition in vivo at 3 mg/kg: 60%

## Cc1cc2ncc(C(=O)NCC(C)(C)NCC(=O)N3CCC[C@H]3C#N)c(C(F)(F)F)n2n1
Dipeptidyl peptidase 8
  IC50: > 100 µM

## Cc1cc2ncc(C(=O)NCC(C)(C)NCC(=O)N3CCC[C@H]3C#N)cn2n1 [ANAGLIPTIN]
Dipeptidyl peptidase 2
  IC50: 177 µM

## Cc1nc2cc(C(C)(C)C)nn2c(C)c1C(=O)NCC(C)(C)NCC(=O)N1CCC[C@H]1C#N
Dipeptidyl peptidase 8
  IC50: > 100 µM
